Test results as given in ChEMBL document CHEMBL3822394, “Discovery of a Potent, Selective, Orally Bioavailable, and Efficacious Novel 2-(Pyrazol-4-ylamino)-pyrimidine Inhibitor of the Insulin-like Growth Factor-1 Receptor (IGF-1R)” (J Med Chem, 2016).
≈ marks a conversion by molar mass, not a printed value. Calls of active or inactive are those of the source. No cut-off for these calls is given here.

Key:
[1] = Octanol-buffer partition co-efficient, log D of the compound at pH 7.4 by shake-flask method; type: physicochemical
[2] = Thermodynamic solubility of the compound in aqueous phosphate buffer at pH 7.4 at 25 degC after 24 hrs by LC-UV method; type: physicochemical; settings: read-out: Therm_solubility
[3] = Volume of distribution at steady state in Han Wistar rat plasma at 2 or 4 umol/kg, iv or 10 umol/kg, po; type: ADME, organism-based; settings: read-out: Vdss
[4] = Fraction unbound in dog plasma by equilibrium dialysis; type: ADME, cell-free, Canis lupus familiaris
[5] = Oral bioavailability in Han Wistar rat plasma at 10 umol/kg; type: ADME, organism-based
[6] = Clearance in Han Wistar rat plasma at 2 or 4 umol/kg, iv or 10 umol/kg, po; type: ADME, organism-based
[7] = Intrinsic clearance in human hepatocytes assessed per 10^6 cells; type: ADME, cell-based, Hepatocyte; settings: read-out: CLH
[8] = Intrinsic clearance in dog hepatocytes assessed per 10^6 cells; type: ADME, cell-based, Canis lupus familiaris, Hepatocyte; settings: read-out: CLH
[9] = Clearance in Beagle dog plasma at 1 or 4 umol/kg, iv or 10 umol/kg, po; type: ADME, organism-based, Canis lupus familiaris
[10] = Volume of distribution at steady state in Beagle dog at 1 or 4 umol/kg, iv or 10 umol/kg, po; type: ADME, organism-based, Canis lupus familiaris; settings: in vivo, read-out: Vdss
[11] = Intrinsic clearance in rat hepatocytes assessed per 10^6 cells; type: ADME, cell-based, Hepatocyte; settings: read-out: CLH
[12] = Oral bioavailability in Beagle dog at 10 umol/kg; type: ADME, organism-based, Canis lupus familiaris; settings: in vivo
[13] = Fraction unbound in rat plasma by equilibrium dialysis; type: ADME, cell-free
[14] = system: COLO 205; test: Potentiation of gemcitabine-induced antitumor activity against human COLO205 cells xenografted in nude mouse assessed as tumor growth inhibition at 25 mg/kg, po for 2 weeks; type: functional, organism-based
[15] = system: COLO 205; test: Potentiation of gemcitabine-induced antitumor activity against human COLO205 cells xenografted in nude mouse assessed as tumor growth inhibition at 50 mg/kg, po for 1 week followed by drug cessation measured after 14 days; type: functional, organism-based
[16] = Cmax in nude mouse at 50 mg/kg, po; type: ADME, organism-based; parameters: dose 50 mg/kg, route oral; settings: in vivo
[17] = system: P12; test: Inhibition of IGF1R phosphorylation in mouse P12 cells allografted in po dosed nu/nu mouse administered as single dose measured after 1 to 2 hrs post dosing; type: functional, organism-based
[18] = system: P12; test: Antitumor activity against mouse P12 cells allografted in nu/nu mouse assessed as tumor growth inhibition at 12.5 to 25 mg/kg, po qd for 7 days; type: functional, organism-based
[19] = system: COLO 205; test: Potentiation of gemcitabine-induced antitumor activity against human COLO205 cells xenografted in nude mouse assessed as increase in stasis at 50 mg/kg, po for 1 week; type: functional, organism-based
[20] = system: Mus musculus; test: T>IC50 for IGF1R in nude mouse at 50 mg/kg, po
[21] = system: COLO 205; test: Antitumor activity against human COLO205 cells xenografted in nude mouse assessed as tumor growth inhibition at 50 mg/kg, po for 2 days per week; type: functional, organism-based
[22] = AUC in nude mouse at 50 mg/kg, po; type: ADME, organism-based; settings: in vivo
[23] = target: Cyclin-dependent kinase 2 (Homo sapiens, UniProt P24941)
[24] = target: Cyclin-dependent kinase 9 (Homo sapiens, UniProt P50750)
[25] = target: Cyclin-dependent kinase 8 (Homo sapiens, UniProt P49336)
[26] = target: Cyclin-dependent kinase 1 (Homo sapiens, UniProt P06493)
[27] = target: Cyclin-dependent kinase 7 (Homo sapiens, UniProt P50613)
[28] = target: Cytochrome P450 3A4 (Homo sapiens, UniProt P08684)
[29] = Oral bioavailability in Han Wistar rat blood at 10 umol/kg; type: ADME, organism-based; settings: whole blood
[30] = Volume of distribution at steady state in Han Wistar rat blood at 2 or 4 umol/kg, iv or 10 umol/kg, po; type: ADME, organism-based; settings: whole blood, read-out: Vdss
[31] = Clearance in Han Wistar rat blood at 2 or 4 umol/kg, iv or 10 umol/kg, po; type: ADME, organism-based; settings: whole blood

Chain of Cyclin-dependent kinase 9 (P50750 whole entry): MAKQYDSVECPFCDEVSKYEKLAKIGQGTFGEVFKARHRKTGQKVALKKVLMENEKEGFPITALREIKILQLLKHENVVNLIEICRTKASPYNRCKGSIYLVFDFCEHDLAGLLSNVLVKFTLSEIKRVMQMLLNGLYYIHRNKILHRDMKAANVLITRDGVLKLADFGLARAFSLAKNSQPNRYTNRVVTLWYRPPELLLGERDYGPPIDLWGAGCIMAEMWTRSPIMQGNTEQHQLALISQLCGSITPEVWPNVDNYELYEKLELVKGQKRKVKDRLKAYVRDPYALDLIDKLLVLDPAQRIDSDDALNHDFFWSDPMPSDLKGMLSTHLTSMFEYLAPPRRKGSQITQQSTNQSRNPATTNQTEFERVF
Chain of Cyclin-dependent kinase 8 (P49336 whole entry): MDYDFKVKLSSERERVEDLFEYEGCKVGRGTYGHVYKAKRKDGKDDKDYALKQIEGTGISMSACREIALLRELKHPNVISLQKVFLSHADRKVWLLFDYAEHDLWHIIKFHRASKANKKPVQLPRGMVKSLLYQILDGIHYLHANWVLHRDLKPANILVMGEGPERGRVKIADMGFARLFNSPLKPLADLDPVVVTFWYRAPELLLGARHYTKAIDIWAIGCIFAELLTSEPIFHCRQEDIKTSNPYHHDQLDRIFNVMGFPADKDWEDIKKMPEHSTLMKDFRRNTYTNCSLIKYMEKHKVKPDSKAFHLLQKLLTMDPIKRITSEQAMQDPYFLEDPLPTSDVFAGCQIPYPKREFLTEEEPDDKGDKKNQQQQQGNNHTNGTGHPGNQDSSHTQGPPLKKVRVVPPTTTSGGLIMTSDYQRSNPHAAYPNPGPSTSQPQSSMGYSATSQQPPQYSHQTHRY
Chain of Cyclin-dependent kinase 7 (P50613 whole entry): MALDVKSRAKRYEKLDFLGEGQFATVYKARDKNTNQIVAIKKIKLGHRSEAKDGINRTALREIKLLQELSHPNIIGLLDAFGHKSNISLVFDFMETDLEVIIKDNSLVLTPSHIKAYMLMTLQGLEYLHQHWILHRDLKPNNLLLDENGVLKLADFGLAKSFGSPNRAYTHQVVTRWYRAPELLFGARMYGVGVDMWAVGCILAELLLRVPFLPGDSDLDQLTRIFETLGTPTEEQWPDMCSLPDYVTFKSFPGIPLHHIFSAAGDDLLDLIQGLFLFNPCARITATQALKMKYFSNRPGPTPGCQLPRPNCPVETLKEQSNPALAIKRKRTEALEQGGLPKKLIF
Chain of Cyclin-dependent kinase 1 (P06493 whole entry): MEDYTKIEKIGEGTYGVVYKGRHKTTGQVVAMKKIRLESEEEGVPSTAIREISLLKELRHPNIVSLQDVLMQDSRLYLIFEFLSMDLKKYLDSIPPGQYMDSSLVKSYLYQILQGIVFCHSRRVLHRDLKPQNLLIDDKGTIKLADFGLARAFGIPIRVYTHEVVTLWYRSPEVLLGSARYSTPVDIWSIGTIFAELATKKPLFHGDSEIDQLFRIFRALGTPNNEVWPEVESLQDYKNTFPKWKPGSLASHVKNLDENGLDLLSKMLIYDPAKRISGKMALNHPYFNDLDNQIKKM
Chain of Cytochrome P450 3A4 (P08684 whole entry): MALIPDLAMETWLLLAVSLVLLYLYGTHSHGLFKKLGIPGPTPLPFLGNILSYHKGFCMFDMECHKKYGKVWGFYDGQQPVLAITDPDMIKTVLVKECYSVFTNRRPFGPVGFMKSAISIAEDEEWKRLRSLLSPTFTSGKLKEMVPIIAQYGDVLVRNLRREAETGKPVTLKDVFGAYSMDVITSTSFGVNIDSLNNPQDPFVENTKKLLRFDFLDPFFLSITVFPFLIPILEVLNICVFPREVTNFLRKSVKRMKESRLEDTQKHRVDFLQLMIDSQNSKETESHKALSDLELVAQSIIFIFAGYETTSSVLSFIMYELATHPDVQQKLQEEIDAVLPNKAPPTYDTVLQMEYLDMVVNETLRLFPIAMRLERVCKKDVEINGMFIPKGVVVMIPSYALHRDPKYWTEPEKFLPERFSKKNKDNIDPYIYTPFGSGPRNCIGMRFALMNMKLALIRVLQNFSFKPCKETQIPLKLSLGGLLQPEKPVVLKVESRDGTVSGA

## Cc1nn(C2CCN(C(=O)[C@@H](C)N)CC2)c(C)c1Nc1ncc(Cl)c(-c2cnn3ccccc23)n1
[1]
  logD: 1.7
[2]
  solubility thermodynamic at 24 h: 620 µM (≈ 306 µg/mL)

## COc1nn(C2CCN(C(C)=O)CC2)cc1Nc1ncc(Cl)c(-c2cnn3ccccc23)n1
[1]
  logD: 3.3

## COc1nn(C2CCN(C(C)=O)CC2)cc1Nc1ncc(Cl)c(-c2cnc3ccccn23)n1
[1]
  logD: 2.9

## Cc1c(Nc2ncc(Cl)c(-c3cnc4ccccn34)n2)cnn1C1CCNCC1
[1]
  logD: 0.9

## CC(=O)N1CCC(n2ncc(Nc3ncc(Cl)c(-c4cnc5ccccn45)n3)c2C)CC1
[1]
  logD: 2.7

## Cc1nn(C2CCN(C(=O)[C@H](C)O)CC2)c(C)c1Nc1ncc(Cl)c(-c2cnn3ccccc23)n1
[1]
  logD: 2.8
[2]
  solubility thermodynamic at 24 h: 17 µM (≈ 8.41 µg/mL)

## CC(=O)N1CCC(n2nc(C)c(Nc3ncc(Cl)c(-c4cnc5ccccn45)n3)c2C)CC1
[1]
  logD: 2.8

## CCc1nn(C2CCN(C(C)=O)CC2)cc1Nc1ncc(Cl)c(-c2cnn3ccccc23)n1
[1]
  logD: 3.4

## Cc1nn(C2CCN(C(=O)CO)CC2)c(C)c1Nc1ncc(Cl)c(-c2cnn3ccccc23)n1
[1]
  logD: 2.6
[3]
  Vd: 1.2 L/kg
[4]
  fraction unbound: 0.12
[5]
  bioavailability: 81%
[6]
  clearance: 8 mL/min/kg
[7]
  hepatocyte CLint: < 3 µL/min/1e6 cells
[8]
  hepatocyte CLint: 6.4 µL/min/1e6 cells
[9]
  clearance: 5 mL/min/kg
[10]
  Vd: 1.6 L/kg
[2]
  solubility thermodynamic at 24 h: 2 µM (≈ 0.962 µg/mL)
[11]
  hepatocyte CLint: 12 µL/min/1e6 cells
[12]
  bioavailability: 6%
[13]
  fraction unbound: 0.091

## CNC(=O)CN1CCC(n2nc(C)c(Nc3ncc(Cl)c(-c4cnn5ccccc45)n3)c2C)CC1
[1]
  logD: 3.2
[2]
  solubility thermodynamic at 24 h: 15 µM (≈ 7.41 µg/mL)

## Cc1nn(C2CCN(C(=O)[C@@H](C)O)CC2)c(C)c1Nc1ncc(Cl)c(-c2cnn3ccccc23)n1
[1]
  logD: 2.9
[3]
  Vd: 0.8 L/kg
[14]
  TGI: Active
[4]
  fraction unbound: 0.12
[5]
  bioavailability: 58%
[6]
  clearance: 15 mL/min/kg
[7]
  hepatocyte CLint: < 3 µL/min/1e6 cells
[15]
  TGI: Active
[16]
  Cmax: 12 µM
[17]
  inhibition: Dose-dependent effect
[8]
  hepatocyte CLint: 8.1 µL/min/1e6 cells
[18]
  TGI: Active
[19]
  Activity: Active
[9]
  clearance: 7 mL/min/kg
[10]
  Vd: 1.3 L/kg
[20]
  Time: 8 h
[2]
  solubility thermodynamic at 24 h: 17 µM (≈ 8.41 µg/mL)
[11]
  hepatocyte CLint: 21 µL/min/1e6 cells
[12]
  bioavailability: 38%
[21]
  TGI: Active
[22]
  AUC: 30 µM·h
[13]
  fraction unbound: 0.18

## CC(=O)N1CCC(n2cc(Nc3ncc(Cl)c(-c4cnc5ccccn45)n3)c(C)n2)CC1
[1]
  logD: 2.8
[23]
  IC50: 0.135 µM

## Cc1nn(C2CCNCC2)c(C)c1Nc1ncc(Cl)c(-c2cnn3ccccc23)n1
[1]
  logD: 1.2
[2]
  solubility thermodynamic at 24 h: 91 µM (≈ 38.5 µg/mL)

## CC(=O)N1CCC(n2cc(Nc3ncc(Cl)c(-c4cnc5ccccn45)n3)cn2)CC1
[1]
  logD: 3.1
[24]
  IC50: 0.037 µM
[25]
  IC50: 0.042 µM
[26]
  IC50: 0.066 µM
[27]
  IC50: 0.021 µM
[23]
  IC50: 0.025 µM

## CC(=O)N1CCC(n2nc(C)c(Nc3ncc(Cl)c(-c4cnn5ccccc45)n3)c2C)CC1
[1]
  logD: 3.1
[3]
  Vd: 1.3 L/kg
[4]
  fraction unbound: 0.12
[5]
  bioavailability: 61%
[6]
  clearance: 18 mL/min/kg
[7]
  hepatocyte CLint: 8.9 µL/min/1e6 cells
[8]
  hepatocyte CLint: 9.6 µL/min/1e6 cells
[2]
  solubility thermodynamic at 24 h: 4 µM (≈ 1.86 µg/mL)
[11]
  hepatocyte CLint: 23 µL/min/1e6 cells
[13]
  fraction unbound: 0.086

## Cc1nn(C2CCNCC2)cc1Nc1ncc(Cl)c(-c2cnc3ccccn23)n1
[1]
  logD: 1.1

## CC(=O)N1CCC(n2ncc(Nc3ncc(Cl)c(-c4cnn5ccccc45)n3)c2C)CC1
[1]
  logD: 3.2
[3]
  Vd: 0.4 L/kg
[4]
  fraction unbound: 0.081
[5]
  bioavailability: 6%
[6]
  clearance: 45 mL/min/kg
[7]
  hepatocyte CLint: < 3 µL/min/1e6 cells
[8]
  hepatocyte CLint: 4.8 µL/min/1e6 cells
[9]
  clearance: 6 mL/min/kg
[10]
  Vd: 0.7 L/kg
[2]
  solubility thermodynamic at 24 h: 9 µM (≈ 4.06 µg/mL)
[11]
  hepatocyte CLint: 77 µL/min/1e6 cells
[12]
  bioavailability: 63%
[13]
  fraction unbound: 0.057

## COc1cc(N2CCN(C(C)=O)CC2)ccc1Nc1ncc(Cl)c(-c2cnn3ccccc23)n1
[1]
  logD: 3.7
[23]
  IC50: 1.03 µM
[28]
  IC50: < 1 µM
[2]
  solubility thermodynamic at 24 h: 1 µM (≈ 0.478 µg/mL)

## Cc1nn(C2CCN(C(=O)CN)CC2)c(C)c1Nc1ncc(Cl)c(-c2cnn3ccccc23)n1
[1]
  logD: 1.3
[2]
  solubility thermodynamic at 24 h: 260 µM (≈ 125 µg/mL)

## CNCC(=O)N1CCC(n2nc(C)c(Nc3ncc(Cl)c(-c4cnn5ccccc45)n3)c2C)CC1
[1]
  logD: 1.4
[2]
  solubility thermodynamic at 24 h: > 1000 µM

## CCOc1nn(C2CCN(C(C)=O)CC2)cc1Nc1ncc(Cl)c(-c2cnn3ccccc23)n1
[1]
  logD: 3.5

## CCc1c(Nc2ncc(Cl)c(-c3cnn4ccccc34)n2)cnn1C1CCN(C(C)=O)CC1
[1]
  logD: 3.3

## Cc1nn(C2CCN(C(=O)[C@H](C)N)CC2)c(C)c1Nc1ncc(Cl)c(-c2cnn3ccccc23)n1
[1]
  logD: 1.7
[2]
  solubility thermodynamic at 24 h: 670 µM (≈ 331 µg/mL)

## COCC(=O)N1CCC(n2nc(C)c(Nc3ncc(Cl)c(-c4cnn5ccccc45)n3)c2C)CC1
[1]
  logD: 2.8
[2]
  solubility thermodynamic at 24 h: 31 µM (≈ 15.3 µg/mL)

## Cc1nn(C2CCN(CC(=O)N(C)C)CC2)c(C)c1Nc1ncc(Cl)c(-c2cnn3ccccc23)n1
[1]
  logD: 2.9
[2]
  solubility thermodynamic at 24 h: 510 µM (≈ 259 µg/mL)

## CC(=O)N1CCC(n2cc(Nc3ncc(Cl)c(-c4cnn5ccccc45)n3)c(C)n2)CC1
[1]
  logD: 3.2
[29]
  bioavailability: 9%
[30]
  Vd: 1.6 L/kg
[2]
  solubility thermodynamic at 24 h: 9 µM (≈ 4.06 µg/mL)
[11]
  hepatocyte CLint: 48 µL/min/1e6 cells
[31]
  clearance: 62 mL/min/kg
[13]
  fraction unbound: 0.072

## Cc1nn(C2CCN(CCO)CC2)c(C)c1Nc1ncc(Cl)c(-c2cnn3ccccc23)n1
[1]
  logD: 2.5
[2]
  solubility thermodynamic at 24 h: 37 µM (≈ 17.3 µg/mL)
